# Measurements published in patent US11096977B2, “Development of a standardized and effect-optimized herbal extract of Wedelia chinensis and its use for treating disease” (Academia Sinica, priority 2015, dated 2021).
# Columns and labels:
# [1] = test system: DU145 cells; experiment: CyQUANT direct cell proliferation assay, DU145; type: cell-based; details: WCE 25 μg/ml or 10 nM docetaxel, 48 h
# Experimental: (§1) After 48 h, viable cell numbers were determined using CyQUANT direct cell proliferation assay.
# [2] = test system: PC-3 AR-negative prostate cancer cells; experiment: murine model for androgen independent prostate cancer, orthotopic PC-3 luciferase cells; type: in vivo, mice; details: daily WCE by gavage, weekly docetaxel into tail vein; 8 week course
# Experimental: Tumor growth was measured weekly by bioluminescent imaging. Animals were also weighed weekly.
# [3] = test system: PC-3 cells; experiment: CyQUANT direct cell proliferation assay, PC-3; type: cell-based; details: WCE 25 μg/ml or 10 nM docetaxel, 48 h
# Experimental: as §1
# [4] = test system: LNCaP cells; experiment: growth rate of LNCaP cells; type: cell-based; details: 20 μg/ml enzalutamide
# [5] = test system: LNCaP-CR cells; experiment: growth rate of LNCaP-CR cells; type: cell-based; details: 20 μg/ml enzalutamide
Structure (SMILES),growth of DU145 cells (FIG. 3B) [1],body weight (FIG. 4B) [2],growth of PC-3 cells (FIG. 3A) [3],growth of LNCaP cells (FIG. 2C) [4],growth of LNCaP-CR cells (FIG. 2D) [5]
CC(=O)O[C@@]12CO[C@@H]1C[C@H](O)[C@@]1(C)C(=O)[C@H](O)C3=C(C)[C@@H](OC(=O)[C@H](O)[C@@H](NC(=O)OC(C)(C)C)c4ccccc4)C[C@@](O)([C@@H](OC(=O)c4ccccc4)[C@H]21)C3(C)C [docetaxel],inhibited growth,large decrease in body weight,inhibited growth,–,–
CNC(=O)c1ccc(N2C(=S)N(c3ccc(C#N)c(C(F)(F)F)c3)C(=O)C2(C)C)cc1F [enzalutamide],–,–,–,significantly inhibited the growth,significantly less growth inhibition
